The test can be described thus: Inhibition of rat intestinal alpha-glucosidase using para-nitrophenyl-alpha-D-glucopyranoside as substrate incubated for 5 min prior to substrate addition measured after 5 min by spectrophotometric analysis.

Our source for the IC50 values is BindingDB's records for doi:10.1007/s00044-011-9583-7 (n/a, 2012).

Each structure is given as a SMILES string.

Molecule `COc1cc(OC)c(OC)cc1/C=C/C(=O)c1cc2ccoc2cc1O` displayed an IC50 of 13.4 µM.

The molecule `O=C(/C=C/c1ccccc1)c1cc2ccoc2cc1O` yielded an IC50 of 14.5 µM.

As for `O=C(/C=C/c1ccc(O)c(O)c1)c1ccc2occc2c1O`, the midpoint of inhibition, the IC50, lay at 15.2 µM. For `O=C(/C=C/c1ccc(O)c(O)c1)c1cc2ccoc2cc1O`, it took 18.9 µM to reach half-maximal inhibition (IC50). `COc1ccc(/C=C/C(=O)c2ccc3occc3c2O)cc1OC` returned an IC50 of 5 µM. Next, `COc1ccc(/C=C/C(=O)c2cc3ccoc3cc2O)cc1OC`: 10.8 µM. Next, `COc1ccc(/C=C/C(=O)c2ccc3occc3c2O)c(OC)c1OC`: 17.3 µM; `COc1ccc(/C=C/C(=O)c2ccc3occc3c2O)cc1`: 9.2 µM. Next, `O=C(/C=C/c1ccc(O)cc1)c1ccc2occc2c1O`: 10.9 µM.
